Numbered stars: 1 amine (or outer) side, 2 acyl side, 3 side chain; on linkers, the order of the positions; unused ones are H or OH. Bridge positions count the residues as written; N and C are the ends. Square brackets hold non-standard residues; d marks the D form. Peptide text beside a SMILES is read from it. * marks the point of attachment. 1,2,3Thiadiazole5CO(4-Me) = Cc1nnsc1C(=O)*; Isoorotoyl = O=C(c1c[nH]c(=O)[nH]c1=O)*; Pyrazinecarbonyl = O=C(c1cnccn1)*; Phenoxyacetyl = O=C(COc1ccccc1)*; Cysteamide = C(CS[*:3])N[*:1]; X3 = O=C(Cc1c[nH]c2ccccc12)*; Isovaleryl = CC(C)CC(=O)*; Orn = NCCC[C@H](N)C(=O)O; Bz = O=C(c1ccccc1)*; βAla = NCCC(=O)O; Mpa = O=C(O)CCS
Biological target: T1, thrombin (Homo sapiens, UniProt P00734)
T1 construct: consists of two polypeptide chains of 36 (light chain) and 259 amino acid
Assay: Thrombin inhibition screen of crude macrocycle reactions (residual thrombin activity, fluorogenic substrate Z-Gly-Gly-Arg-AMC)
Type: biochemical
Conditions: 10 µM macrocycle concentration; crude reactions, Library 1a-l; scaffold AA1-AA2-AA3 combined with 1-16 or '-'
Procedure, shortened: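 Each crude macrocycle (10 μM) was preincubated 10 min at room temperature with thrombin (2 nM final) in Tris-Cl pH 7.4 containing NaCl, MgCl2, CaCl2, 0.1% BSA, 0.01% Triton X-100 and 0.6% DMSO. Z-Gly-Gly-Arg-AMC (50 μM final) was then added. Inhibition came from fluorescence slopes relative to DMSO-only controls.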

Row | Structure (SMILES) | percent residual thrombin activity [%]
1 | NC(=O)CCC1NC(=O)C(CCCCNC(=O)c2cnccn2)NC(=O)CCSSCCNC(=O)C2CCCN2C1=O (centres unmarked) [D1-Q-B1/2] ([Mpa]K(Pyrazinecarbonyl)QP-Cysteamide; disulfide 1-C; configuration not given here) | 104.356
2 | NC(=O)CC[C@@H]1NC(=O)[C@H](CCCCNC(=O)Cc2c[nH]c3ccccc23)NC(=O)CCSSCCNC(=O)[C@@H]2CCCN2C1=O [D1-Q-B1/12] ([Mpa]K(X3)QP-Cysteamide; disulfide 1-C) | 104.82
3 | NC(=O)CC[C@@H]1NC(=O)[C@H](CCCCNC(=O)COc2ccccc2)NC(=O)CCSSCCNC(=O)[C@@H]2CCCN2C1=O [D1-Q-B1/13] ([Mpa]K(Phenoxyacetyl)QP-Cysteamide; disulfide 1-C) | 104.037
4 | NCCCC[C@@H]1NC(=O)CCSSCCNC(=O)[C@@H]2CCCN2C(=O)[C@H](CCC(N)=O)NC1=O [D1-Q-B1/-] ([Mpa]KQP-Cysteamide; disulfide 1-C) | 108.142
5 | COc1ccc(C(=O)NCCCC[C@@H]2NC(=O)CCSSCCNC(=O)C3(CC3)CNC(=O)[C@H](CO)NC2=O)cn1 [D1-S-B6/10] | 102.192
6 | CC(C)CC(=O)NCCCC[C@@H]1NC(=O)CCSSCCNC(=O)C2(CC2)CNC(=O)[C@H](C(C)C)NC1=O [D1-V-B6/8] | 110.303
7 | CC(C)[C@@H]1NC(=O)[C@H](CCCCNC(=O)c2c[nH]c(=O)cn2)NC(=O)CCSSCCNC(=O)C2(CC2)CNC1=O [D1-V-B6/9] | 106.409
8 | Cc1nnsc1C(=O)NCCCC[C@@H]1NC(=O)CCSSCCNC(=O)C2(CC2)CNC(=O)[C@H](C(C)C)NC1=O [D1-V-B6/15] | 112.935
9 | CC(C)[C@@H]1NC(=O)[C@H](CCCCNC(=O)c2ccco2)NC(=O)CCSSCCNC(=O)C2(CC2)CNC1=O [D1-V-B6/16] | 107.867
10 | CC[C@H](C)[C@@H]1NC(=O)CCNC(=O)[C@H](CCCNC(=O)c2ccc(OC)nc2)NC(=O)CCSSCCNC1=O [D2-B2-I/10] | 104.624
11 | CC[C@H](C)[C@@H]1NC(=O)CCNC(=O)[C@H](CCCNC(=O)c2ccco2)NC(=O)CCSSCCNC1=O [D2-B2-I/16] | 111.823
12 | O=C1CCSSCCNC(=O)[C@@H](Cc2ccc(O)cc2)NC(=O)CCNC(=O)[C@H](CCCNC(=O)c2ccccc2)N1 [D2-B2-y/1] | 109.22
13 | CC(C)CC(=O)NCCC[C@@H]1NC(=O)CCSSCCNC(=O)[C@H](C(C)C)NC(=O)[C@H]2CCCN(C2)C1=O [D2-B4-V/8] | 110.86
14 | COc1ccc(C(=O)NCCC[C@@H]2NC(=O)CCSSCCNC(=O)[C@H](C(C)C)NC(=O)[C@H]3CCCN(C3)C2=O)cn1 [D2-B4-V/10] | 108.833
15 | CC(C)[C@@H]1NC(=O)[C@H]2CCCN(C2)C(=O)[C@H](CCCNC(=O)COc2ccccc2)NC(=O)CCSSCCNC1=O [D2-B4-V/13] | 112.633
16 | CC(C)[C@@H]1NC(=O)[C@H]2CCCN(C2)C(=O)[C@H](CCCNC(=O)c2ccc(Cl)s2)NC(=O)CCSSCCNC1=O [D2-B4-V/14] | 102.581
17 | O=C1CCSSCCNC(=O)[C@@H](Cc2ccccc2)NC(=O)[C@H]2CCCN(C2)C(=O)[C@H](CCCNC(=O)c2c[nH]c(=O)cn2)N1 [D2-B4-f/9] | 109.579
18 | COc1ccc(C(=O)NCCC[C@@H]2NC(=O)CCSSCCNC(=O)[C@@H](Cc3ccccc3)NC(=O)[C@H]3CCCN(C3)C2=O)cn1 [D2-B4-f/10] | 107.675
19 | O=C1CCSSCCNC(=O)[C@@H](Cc2ccccc2)NC(=O)[C@H]2CCCN(C2)C(=O)[C@H](CCCNC(=O)c2ccc(Cl)s2)N1 [D2-B4-f/14] | 82.899
20 | COc1ccc(C(=O)NCCC[C@@H]2NC(=O)CCSSCCNC(=O)[C@H](Cc3ccc(O)cc3)NC(=O)c3cccc(c3)CNC2=O)cn1 [D2-B5-Y/10] | 96.9489
21 | NCCC[C@@H]1NC(=O)CCSSCCNC(=O)[C@H](Cc2ccc(O)cc2)NC(=O)c2cccc(c2)CNC1=O [D2-B5-Y/-] | 110.083
22 | CC(C)[C@H]1NC(=O)c2cccc(c2)CNC(=O)[C@H](CCCNC(=O)c2ccco2)NC(=O)CCSSCCNC1=O [D2-B5-v/16] | 103.718
23 | CC[C@H](C)[C@@H]1NC(=O)[C@H](CCCNC(=O)c2snnc2C)NC(=O)CCSSCCNC(=O)[C@@H]2CCCN2C1=O [D2-I-B1/15] ([Mpa][Orn](1,2,3Thiadiazole5CO(4-Me))IP-Cysteamide; disulfide 1-C) | 108.604
24 | CC[C@H](C)[C@@H]1NC(=O)[C@H](CCCNC(=O)c2ccccc2)NC(=O)CCSSCCNC(=O)CCNC1=O [D2-I-B2/1] ([Mpa][Orn](Bz)I[βAla]-Cysteamide; disulfide 1-C) | 109.798
25 | CC[C@H](C)[C@@H]1NC(=O)[C@H](CCCNC(=O)c2cnccn2)NC(=O)CCSSCCNC(=O)CCNC1=O [D2-I-B2/2] | 113.295
26 | CC[C@H](C)[C@@H]1NC(=O)[C@H](CCCNC(=O)CC(C)C)NC(=O)CCSSCCNC(=O)CCNC1=O [D2-I-B2/8] ([Mpa][Orn](Isovaleryl)I[βAla]-Cysteamide; disulfide 1-C) | 110.049
27 | CC[C@H](C)[C@@H]1NC(=O)[C@H](CCCNC(=O)COc2ccccc2)NC(=O)CCSSCCNC(=O)CCNC1=O [D2-I-B2/13] | 114.645
28 | CC[C@H](C)[C@@H]1NC(=O)[C@H](CCCNC(=O)c2ccc(Cl)s2)NC(=O)CCSSCCNC(=O)CCNC1=O [D2-I-B2/14] | 94.0704
29 | O=C1CCNC(=O)[C@H](CO)NC(=O)[C@H](CCCNC(=O)c2cnccn2)NC(=O)CCSSCCN1 [D2-S-B2/2] | 115.288

Now from value to molecule:

Row | percent residual thrombin activity [%] | Structure (SMILES)
30 | 109.119 | NC(=O)CC[C@@H]1NC(=O)[C@H](CCCCNC(=O)c2c[nH]c(=O)[nH]c2=O)NC(=O)CCSSCCNC(=O)[C@@H]2CCCN2C1=O [D1-Q-B1/11] ([Mpa]K(Isoorotoyl)QP-Cysteamide; disulfide 1-C)
31 | 111.469 | COc1ccc(C(=O)NCCCC[C@@H]2NC(=O)CCSSCCNC(=O)c3ccc(cc3)CNC(=O)[C@H](CO)NC2=O)cn1 [D1-S-B3/10]
32 | 115.568 | O=C(COc1ccccc1)NCCCC[C@@H]1NC(=O)CCSSCCNC(=O)c2ccc(cc2)CNC(=O)[C@H](CO)NC1=O [D1-S-B3/13]
33 | 113.1 | Cc1nnsc1C(=O)NCCCC[C@@H]1NC(=O)CCSSCCNC(=O)c2ccc(cc2)CNC(=O)[C@H](CO)NC1=O [D1-S-B3/15]
34 | 103.758 | O=C1CCSSCCNC(=O)C2(CC2)CNC(=O)[C@H](CO)NC(=O)[C@H](CCCCNC(=O)c2c[nH]c(=O)[nH]c2=O)N1 [D1-S-B6/11]
35 | 113.677 | CC[C@H](C)[C@@H]1NC(=O)CCNC(=O)[C@H](CCCNC(=O)c2c[nH]c(=O)[nH]c2=O)NC(=O)CCSSCCNC1=O [D2-B2-I/11]
36 | 112.114 | CC(C)CC(=O)NCCC[C@@H]1NC(=O)CCSSCCNC(=O)[C@H](CCC(N)=O)NC(=O)c2ccc(cc2)CNC1=O [D2-B3-Q/8]
37 | 109.29 | NC(=O)CC[C@@H]1NC(=O)c2ccc(cc2)CNC(=O)[C@H](CCCNC(=O)c2c[nH]c(=O)cn2)NC(=O)CCSSCCNC1=O [D2-B3-Q/9]
38 | 114.755 | NC(=O)CC[C@@H]1NC(=O)c2ccc(cc2)CNC(=O)[C@H](CCCNC(=O)c2c[nH]c(=O)[nH]c2=O)NC(=O)CCSSCCNC1=O [D2-B3-Q/11]
39 | 99.7053 | Cc1cc(C(=O)NCCC[C@@H]2NC(=O)CCSSCCNC(=O)[C@H](Cc3cnc[nH]3)NC(=O)c3cccc(c3)CNC2=O)no1 [D2-B5-H/3]
40 | 99.4462 | O=C(Cc1c[nH]c2ccccc12)NCCC[C@@H]1NC(=O)CCSSCCNC(=O)[C@H](Cc2c[nH]cn2)NC(=O)c2cccc(c2)CNC1=O [D2-B5-H/12]
41 | 105.187 | O=C(COc1ccccc1)NCCC[C@@H]1NC(=O)CCSSCCNC(=O)[C@H](Cc2cnc[nH]2)NC(=O)c2cccc(c2)CNC1=O [D2-B5-H/13]
42 | 105.304 | Cc1nnsc1C(=O)NCCC[C@@H]1NC(=O)CCSSCCNC(=O)[C@H](Cc2c[nH]cn2)NC(=O)c2cccc(c2)CNC1=O [D2-B5-H/15]
43 | 101.891 | O=C1CCSSCCNC(=O)[C@H](Cc2cnc[nH]2)NC(=O)c2cccc(c2)CNC(=O)[C@H](CCCNC(=O)c2ccco2)N1 [D2-B5-H/16]
44 | 100.592 | CC(C)CC(=O)NCCC[C@@H]1NC(=O)CCSSCCNC(=O)[C@H](Cc2ccc(O)cc2)NC(=O)c2cccc(c2)CNC1=O [D2-B5-Y/8]
45 | 99.266 | O=C(Cc1c[nH]c2ccccc12)NCCC[C@@H]1NC(=O)CCSSCCNC(=O)[C@H](Cc2ccc(O)cc2)NC(=O)c2cccc(c2)CNC1=O [D2-B5-Y/12]
46 | 78.2447 | O=C1CCSSCCNC(=O)[C@H](Cc2ccc(O)cc2)NC(=O)c2cccc(c2)CNC(=O)[C@H](CCCNC(=O)c2ccc(Cl)s2)N1 [D2-B5-Y/14]
47 | 91.9104 | Cc1nnsc1C(=O)NCCC[C@@H]1NC(=O)CCSSCCNC(=O)[C@H](Cc2ccc(O)cc2)NC(=O)c2cccc(c2)CNC1=O [D2-B5-Y/15]
48 | 100.852 | O=C1CCSSCCNC(=O)[C@H](Cc2ccc(O)cc2)NC(=O)c2cccc(c2)CNC(=O)[C@H](CCCNC(=O)c2ccco2)N1 [D2-B5-Y/16]
49 | 108.83 | CC(C)[C@H]1NC(=O)c2cccc(c2)CNC(=O)[C@H](CCCNC(=O)c2c[nH]c(=O)[nH]c2=O)NC(=O)CCSSCCNC1=O [D2-B5-v/11]
50 | 98.5757 | CC(C)[C@H]1NC(=O)c2cccc(c2)CNC(=O)[C@H](CCCNC(=O)c2ccc(Cl)s2)NC(=O)CCSSCCNC1=O [D2-B5-v/14]

— PMC9250534, “Synthesis and direct assay of large macrocycle diversities by combinatorial late-stage modification at picomole scale” (Nature Communications, 2022)
